Target: T1, recombinant human truncated SHIP1 (tSHIP1) (Homo sapiens, UniProt Q92835)
T1 construct: tSHIP1 (SHIP1, residues 397-864) was amplified from pET24TEV-tSHIP1; His tag; made in house; host or cells: E. coli BL21
T1 sequence (Q92835 397-864): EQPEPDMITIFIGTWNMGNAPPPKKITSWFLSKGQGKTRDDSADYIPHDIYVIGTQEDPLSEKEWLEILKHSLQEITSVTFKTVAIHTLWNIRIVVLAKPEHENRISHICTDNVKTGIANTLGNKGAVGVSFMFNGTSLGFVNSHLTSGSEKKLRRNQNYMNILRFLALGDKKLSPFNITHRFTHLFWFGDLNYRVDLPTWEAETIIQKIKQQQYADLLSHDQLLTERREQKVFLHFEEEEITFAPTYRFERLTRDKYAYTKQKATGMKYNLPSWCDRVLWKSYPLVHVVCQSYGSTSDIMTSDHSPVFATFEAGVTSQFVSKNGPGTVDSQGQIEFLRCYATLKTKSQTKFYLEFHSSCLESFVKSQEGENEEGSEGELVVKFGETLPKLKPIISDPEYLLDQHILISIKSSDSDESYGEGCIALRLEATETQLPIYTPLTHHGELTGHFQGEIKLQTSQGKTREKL
Assay: Malachite Green Phosphatase Release Assay (SHIP1 phosphatase activity)
Format: biochemical
Conditions: for Phosphatase activity in the Malachite Green Assay, analog concentration 125 μM: 125 μM analog; for Phosphatase activity in the Malachite Green Assay, analog concentration 125 μM / Phosphatase activity in the Malachite Green Assay, analog concentration 250 μM / Phosphatase activity in the Malachite Green Assay, analog concentration 500 μM: 100 μM PI(3,4,5)P3-diC8 substrate, normalized to vehicle control (DMSO) = 100%; for Phosphatase activity in the Malachite Green Assay, analog concentration 250 μM: 250 μM analog; for Phosphatase activity in the Malachite Green Assay, analog concentration 500 μM: 500 μM analog, >100% activation, <100% inhibition; for SHIP1 activator activity in the malachite green assay: discussion of Table 4 (125-500 μM); for Malachite (SHIP1), 125 μM / Malachite (SHIP1), 250 μM / Malachite (SHIP1), 500 μM: bis-sulfonamide hybrids
Description: ^aPhosphatase activity for SHIP1 and SHIP2 enzyme as determined in the malachite green assay. Results were normalized to the phosphatase activity level from vehicle control (DMSO) used as 100% activity. Values >100% are attributed to activation, while values <100% show inhibition of the enzyme compared to the control. The assay was performed at the indicated concentration of the small molecule with 100 μM PI(3,4,5)P3-diC8 as the substrate. ^bnd=not determined, compound 23 was insoluble.
Cloning and expression of tSHIP1 of truncated human SHIP1 protein (tSHIP1) from human whole blood mRNA have been previously described (see Brooks R, Iyer, S., Akada, H., Neelam, S., Russo, C. M., Chisholm, J. D., and Kerr W. G. Coordinate Expansion of Murine Hematopoietic and Mesenchymal Stem Cell Compartments by SHIPi Stem Cells 2015; 33:848). Briefly, tSHIP1 (SHIP1, residues 397-864) was amplified from pET24TEV-tSHIP1. Plasmids were extracted with Midi Prep (Qiagen) and sequences were verified by sequencing of the entire expression regions. The plasmids were then transformed into E. coli BL21 (New England Biolabs). Fresh colonies were amplified in 1 L LB at 37° C., shaking at 250 rpm until OD600 nm reached 0.6. Protein expression was induced with […] IPTG and incubation was continued at 16° C., shaking at 250 rpm for 16 h. Following centrifugation, bacteria pellets were stored overnight at −20° C. Protein was extracted form bacterial cell pellet using BugBuster HT (Millipore), according to manufacturer's recommendations. The His-tagged protein was purified by FPLC using HisTrapHP 5 ml column (Cytiva Life Sciences) at a 5 ml/min flow rate and 10 mM-1M imidazole gradient in Buffer A (20 mM Tris pH 8.0, 300 mM NaCl, 10 mM imidazole, 5 mM β-mercaptoethanol). Fractions containing active protein by Malachite Green Phosphatase Release Assay (Echelon, see below) were pooled, concentrated and buffer exchanged to reduce imidazole concentration by centrifugation using Pierce Protein Concentrators 30KMWCO PES, (ThermoFisher Scientific). Protein was aliquoted and stored at −80° C. in a mixture of Buffer A (without β-ME) and 50% glycerol.
Malachite Green Phosphatase Release Assays: Malachite Green Phosphatase Release Assays (Echelon Biosciences) were performed with recombinant human truncated SHIP1 (tSHIP1) (Brooks, 2015) and SHIP2 (Echelon Biosciences). Briefly, serial dilutions of the compounds dissolved in DMSO were added to the recombinant enzymes diluted in reaction buffer Rx (50 mM Hepes pH 7.4, 150 mM NaCl, 1 mM MgCl2, 0.25 mM EDTA) in triplicate reactions in 96-well plates. Reactions were incubated for 2 min at room temperature. […] of 1 mM Phosphatidylinositol 3,4,5-trisphosphate diC8 (PI(3,4,5)P3diC8) (Echelon Biosciences) was added to each reaction to a final concentration of 100 μM in a final volume of […]. Following 20 min incubation at 37° C., 100 μL of Malachite Green Solution (Echelon Biosciences) was added to each well and plates were incubated at room temperature in the dark for 15 min. Plates were then read at 620 nm on a plate reader (Synergy 2, BioTek).

Row | Phosphatase activity in the Malachite Green Assay, analog concentration 125 μM [%] | Phosphatase activity in the Malachite Green Assay, analog concentration 250 μM [%] | Phosphatase activity in the Malachite Green Assay, analog concentration 500 μM [%] | SHIP1 activator activity in the malachite green assay | Malachite (SHIP1), 125 μM [%] | Malachite (SHIP1), 250 μM [%] | Malachite (SHIP1), 500 μM [%] | SMILES
1 | 100 | 97 | 90 | loss of activity |  |  |  | Cc1sc(S(=O)(=O)N2CCCC2)cc1NC(=O)CNS(=O)(=O)c1ccc(F)cc1 [Compound K387, 2-(4-Fluorobenzenesulfonamido)-N-[2-methyl-5-(pyrrolidine-1-sulfonyl)thiophen-3-yl]acetamide]
2 | 94 | 97 | 107 | less active |  |  |  | O=C(CNS(=O)(=O)c1ccc(F)cc1)Nc1cccc(S(=O)(=O)N2CCSCC2)c1 [Compound K400, 2-(4-Fluorobenzenesulfonamido)-N-[3-(thiomorpholine-4-sulfonyl)phenyl]acetamide]
3 | 101 | 93 | 109 |  |  |  |  | CCN(CC)S(=O)(=O)c1cc(NC(=O)CNS(=O)(=O)c2ccc(F)cc2)c(C)s1 [Compound K383, N-[5-(Diethylsulfamoyl)-2-methylthiophen-3-yl]-2-(4-fluorobenzenesulfonamido) acetamide]
4 | 99 | 83 | 119 | loss of bioactivity |  |  |  | Cc1sc(S(=O)(=O)N2CCSCC2)cc1NC(=O)CNS(=O)(=O)c1ccc(I)cc1 [Compound K374, 2-(4-Iodobenzenesulfonamido)-N-[2-methyl-5-(thiomorpholine-4-sulfonyl)thiophen-3-yl]acetamide]

Further lines, the compound ahead of its results:

Row | SMILES | Phosphatase activity in the Malachite Green Assay, analog concentration 125 μM [%] | Phosphatase activity in the Malachite Green Assay, analog concentration 250 μM [%] | Phosphatase activity in the Malachite Green Assay, analog concentration 500 μM [%] | SHIP1 activator activity in the malachite green assay | Malachite (SHIP1), 125 μM [%] | Malachite (SHIP1), 250 μM [%] | Malachite (SHIP1), 500 μM [%]
5 | Cc1sc(S(=O)(=O)N2CCSCC2)cc1NC(=O)[C@@H](NS(=O)(=O)c1ccc(F)cc1)c1ccccc1 [Compound K409, (2S)-2-(4-Fluorobenzenesulfonamido)-N-[2-methyl-5-(thiomorpholine-4-sulfonyl)thiophen-3-yl]-2-phenylacetamide] | 94 | 107 | 134 |  |  |  | 
6 | O=C(CNS(=O)(=O)c1ccc(F)cc1)Nc1ccc(S(=O)(=O)N2CCSCC2)cc1 [Compound K399, 2-(4-Fluorobenzenesulfonamido)-N-[4-(thiomorpholine-4-sulfonyl)phenyl] acetamide] | 112 | 105 | 130 | Activity was maintained |  |  | 
7 | Cc1sc(S(=O)(=O)N2CCSCC2)cc1N [Compound K381] | 109 | 107 | 113 | reduced effect on SHIP activation |  |  | 
8 | Cc1sc(S(=O)(=O)N2CCSCC2)cc1NC(=O)CN1C(=O)c2ccccc2S1(=O)=O [Compound K402, N-[2-methyl-5-(thiomorpholine-4-sulfonyl)thiophen-3-yl]-2-(1,1,3-trioxo-2,3-dihydro-1-benzothiazol-2-yl) acetamide] | 109 | 131 | 161 | nearly as potent as 69 |  |  | 
9 | O=C(CNS(=O)(=O)c1ccc(C(F)(F)F)cc1)Nc1ccc(S(=O)(=O)N2CCCCC2)cc1 [Compound K426] |  |  |  |  | 75 | 63 | 74
10 | O=C(CNS(=O)(=O)c1ccc(F)cc1)Nc1cc(S(=O)(=O)N2CCSCC2)sc1Cl [Compound K401, N-[2-Chloro-5-(thiomorpholine-4-sulfonyl)thiophen-3-yl]-2-(4-fluorobenzenesulfonamido) acetamide] | 102 | 109 | 125 | nearly equipotent as the parent K306 structure |  |  | 
11 | Cc1sc(S(=O)(=O)N2CCCCC2)cc1NC(=O)[C@@H]1CCCN1S(=O)(=O)c1ccc(C(F)(F)F)cc1 [Compound K422] |  |  |  |  | 96 | 103 | 126
12 | Cc1sc(S(=O)(=O)N2CCSCC2)cc1NC(=O)[C@@H](Cc1ccccc1)NS(=O)(=O)c1ccc(F)cc1 [Compound K395, (2R)-2-(4-Fluorobenzenesulfonamido)-N-[2-methyl-5-(thiomorpholine-4-sulfonyl)thiophen-3-yl]-3-phenylpropanamide] | 112 | 106 | 106 |  |  |  | 
13 | O=C(Nc1ccc(S(=O)(=O)N2CCCCC2)cc1)[C@@H]1CCCN1S(=O)(=O)c1ccc(C(F)(F)F)cc1 (stereo in doubt) [Compound K423] |  |  |  |  | 99 | 109 | 136
14 | Cc1sc(S(=O)(=O)N2CCSCC2)cc1NC(=O)CNC(=O)c1ccccc1 [Compound K371, N-[2-methyl-5-(thiomorpholine-4-sulfonyl)thiophen-3-yl]-2-(phenylformamido) acetamide] | 97 | 94 | 83 | loss of potency |  |  | 

Reference: patent US20260199365A1, “BIS-SULFONAMIDE SHIP1 ACTIVATORS” (The Research Foundation for the State University of New York, priority 2022, published 2026)
